Test results taken from patent US20260355196A1, “INHIBITORS AND DEGRADERS OF PIP4K PROTEIN” (Larkspur Biosciences, Inc., priority 2023, published 2026).

Target: T1, PIP4K2C (Homo sapiens, UniProt Q8TBX8)
T1 sequence (Q8TBX8 1-421): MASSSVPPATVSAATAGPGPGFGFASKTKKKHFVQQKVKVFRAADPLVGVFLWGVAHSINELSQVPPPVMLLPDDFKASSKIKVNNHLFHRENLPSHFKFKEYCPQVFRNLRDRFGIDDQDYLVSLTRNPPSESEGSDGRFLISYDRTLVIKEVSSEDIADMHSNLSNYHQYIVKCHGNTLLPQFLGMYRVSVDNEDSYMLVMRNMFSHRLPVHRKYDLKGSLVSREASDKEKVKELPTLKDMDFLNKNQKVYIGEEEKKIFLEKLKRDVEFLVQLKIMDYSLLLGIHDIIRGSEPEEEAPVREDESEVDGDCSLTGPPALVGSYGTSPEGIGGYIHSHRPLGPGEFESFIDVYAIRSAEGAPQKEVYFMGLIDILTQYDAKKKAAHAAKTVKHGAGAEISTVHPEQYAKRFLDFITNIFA
Assay: Enzyme Binding Assay (KINOMEscan): active site-directed competition binding to an immobilized ligand
Parameters: purchased Eurofins DiscoverX, San Diego, CA 87-0007-1094
Conditions: 11-point dose response, duplicate, top concentration 5 micromolar; read-out: Pip4k2c Kd: IC50
Outline: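 IC50 values come from Hill-equation fits (Levenberg-Marquardt) to 11-point duplicate titrations starting at 5 micromolar. Read-out is competition of compound with an immobilized ligand for the kinase active site.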

IC50 [µM]	Structure (SMILES)
< 0.5	NC(=O)C1CCCC(Nc2ncc(Cl)c(-c3cccc(-c4ccccc4)c3)n2)C1 (stereo not shown) [Compound 22, 3-((4-([1,1′-biphenyl]-3-yl)-5-chloropyrimidin-2-yl)amino)cyclohexane-1-carboxamide]
1 to 5	CC(=O)N1CCC(Nc2ncc(F)c(N3CCC[C@H](C(=O)N4CC[C@H](O)C4)C3)n2)CC1 [Compound 215, 1-(4-((5-fluoro-4-((S)-3-((S)-3-hydroxypyrrolidine-1-carbonyl)piperidin-1-yl)pyrimidin-2-yl)amino)piperidin-1-yl)ethan-1-one]
< 0.5	NC(=O)[C@@H]1CCC[C@H](Nc2ncc(F)c(-c3cccc(-n4cc(C(F)(F)F)ccc4=O)c3)n2)C1 [Compound 208, (1R,3S)-3-((5-fluoro-4-(3-(2-oxo-5-(trifluoromethyl)pyridin-1 (2H)-yl)phenyl)pyrimidin-2-yl)amino)cyclohexane-1-carboxamide]
< 0.5	CNC(=O)[C@H]1CC[C@H](Nc2ncc(Cl)c(-c3cnn(C4CC4)c3)n2)CC1 [Compound 117, trans-(1r,4r)-4-((5-chloro-4-(1-cyclopropyl-1H-pyrazol-4-yl)pyrimidin-2-yl)amino)-N-methylcyclohexane-1-carboxamide]
< 0.5	CC(C)(O)c1cc(-c2nc(N[C@@H]3CCC[C@H](C(N)=O)C3)ncc2F)ccn1 (relative stereo) [Compound 177, cis-3-((5-fluoro-4-(2-(2-hydroxypropan-2-yl)pyridin-4-yl)pyrimidin-2-yl)amino)cyclohexane-1-carboxamide]
< 0.5	CC(=O)N[C@H]1CC[C@H](Nc2ncc(F)c(-c3ccnc(C4(O)CCC4)c3)n2)CC1 [Compound 231, trans-N-(4-((5-fluoro-4-(2-(1-hydroxycyclobutyl)pyridin-4-yl)pyrimidin-2-yl)amino)cyclohexyl)acetamide]
< 0.5	CC(=O)N1CCC(Nc2ncc(F)c(-c3cccc(-c4ncc[nH]4)c3)n2)CC1 [Compound 239, 1-(4-((4-(3-(1H-imidazol-2-yl)phenyl)-5-fluoropyrimidin-2-yl)amino)piperidin-1-yl)ethan-1-one]
< 0.5	CC(=O)N1CCC(Nc2ncc(F)c(-c3cccc(N4CCC(O)C4=O)c3)n2)CC1 (stereo not shown) [Compound 228, 1-(3-(2-((1-acetylpiperidin-4-yl)amino)-5-fluoropyrimidin-4-yl)phenyl)-3-hydroxypyrrolidin-2-one]
< 0.5	NC(=O)[C@H]1CC[C@H](Nc2ncc(F)c(-c3ccnc(-n4ccccc4=O)c3)n2)CC1 [Compound 623, trans-4-((5-fluoro-4-(2-oxo-2H-[1,2′-bipyridin]-4′-yl)pyrimidin-2-yl)amino)cyclohexane-1-carboxamide]
< 0.5	CNC(=O)[C@H]1C[C@H](Nc2ncc(Cl)c(-c3cc(C4CC4)[nH]n3)n2)C1 [Compound 162, trans-(1r,3r)-3-((5-chloro-4-(5-cyclopropyl-1H-pyrazol-3-yl)pyrimidin-2-yl)amino)-N-methylcyclobutane-1-carboxamide]
< 0.5	NC(=O)[C@H]1CC[C@H](Nc2ncc(F)c(-c3cccc(-n4cc(C(F)(F)F)ccc4=O)c3)n2)CC1 [Compound 246, trans-4-((5-fluoro-4-(3-(2-oxo-5-(trifluoromethyl)pyridin-1 (2H)-yl)phenyl)pyrimidin-2-yl)amino)cyclohexane-1-carboxamide]
0.5 to 1	CNC(=O)[C@H]1CC[C@H](Nc2ncc(Cl)c(-c3cnn(-c4cc[nH]c(=O)c4)c3)n2)CC1 [Compound 165, trans-(1r,4r)-4-((5-chloro-4-(1-(2-oxo-1,2-dihydropyridin-4-yl)-1H-pyrazol-4-yl)pyrimidin-2-yl)amino)-N-methylcyclohexane-1-carboxamide]
< 0.5	CC(=O)N1CCC(Nc2ncc(F)c(-c3cccc(-c4cc[nH]c(=O)c4)c3)n2)CC1 [Compound 187, 4-(3-(2-((1-acetylpiperidin-4-yl)amino)-5-fluoropyrimidin-4-yl)phenyl)pyridin-2(1H)-one]
< 0.5	CC(=O)N1CCC(Nc2ncc(F)c(-c3cccc(C(=O)N4CC[C@H](O)C4)c3)n2)CC1 [Compound 212, (S)-1-(4-((5-fluoro-4-(3-(3-hydroxypyrrolidine-1-carbonyl)phenyl)pyrimidin-2-yl)amino)piperidin-1-yl)ethan-1-one]
< 0.5	CC(=O)N1CCC(CCC(=O)N2CCC(Nc3ncc(Cl)c(-c4cccc(-c5ccccc5)c4)n3)CC2)CC1 [Compound 8, 1-(4-((4-([1,1′-biphenyl]-3-yl)-5-chloropyrimidin-2-yl)amino)piperidin-1-yl)-3-(1-acetylpiperidin-4-yl)propan-1-one]
< 0.5	O=C(C1CCC2(CCNCC2)CC1)N1CCC(Nc2ncc(Cl)c(-c3cccc(-c4ccccc4)c3)n2)CC1 [Compound 11, (4-((4-([1,1′-biphenyl]-3-yl)-5-chloropyrimidin-2-yl)amino)piperidin-1-yl)(3-azaspiro[5.5]undecan-9-yl)methanone]
< 0.5	CC(=O)N[C@H]1CC[C@H](Nc2ncc(F)c(-c3cccc(-n4ccccc4=O)n3)n2)CC1 [Compound 626, trans-N-(4-((5-fluoro-4-(2-oxo-2H-[1,2′-bipyridin]-6′-yl)pyrimidin-2-yl)amino)cyclohexyl)acetamide]

The remaining lines, values behind:

Structure (SMILES)	IC50 [µM]
CC(=O)N1CCC(Nc2ncc(F)c(-c3cccc(N4CCOCC4)c3)n2)CC1 [Compound 606, 1-[4-[[5-fluoro-4-(3-morpholinophenyl)pyrimidin-2-yl]amino]-1-piperidyl]ethanone]	< 0.5
CC(=O)N1CCC(Nc2ncc(F)c(-c3cccc(-n4ccccc4=O)c3)n2)CC1 [Compound 614, 1-(3-(2-((1-acetylpiperidin-4-yl)amino)-5-fluoropyrimidin-4-yl)phenyl)pyridin-2(1H)-one]	< 0.5
CC(=O)N[C@H]1CC[C@H](Nc2ncc(F)c(-c3cccc(N4CCOCC4=O)c3)n2)CC1 [Compound 267, trans-N-(4-((5-fluoro-4-(3-(3-oxomorpholino)phenyl)pyrimidin-2-yl)amino)cyclohexyl)acetamide]	< 0.5
CC(=O)N[C@H]1CC[C@H](Nc2ncc(F)c(-c3cccc(N4CCOCC4=O)n3)n2)CC1 [Compound 270, trans-N-(4-((5-fluoro-4-(6-(3-oxomorpholino)pyridin-2-yl)pyrimidin-2-yl)amino)cyclohexyl)acetamide]	< 0.5
CNC(=O)[C@H]1CC[C@H](Nc2ncc(Cl)c(-c3ccnc(-c4ccc(F)cc4)c3)n2)CC1 [Compound 160, trans-(1r,4r)-4-((5-chloro-4-(2-(4-fluorophenyl)pyridin-4-yl)pyrimidin-2-yl)amino)-N-methylcyclohexane-1-carboxamide]	< 0.5
CC(=O)N1CCC(Nc2ncc(F)c(-c3cccc(C4COC4)c3)n2)CC1 [Compound 169, 1-(4-((5-fluoro-4-(3-(oxetan-3-yl)phenyl)pyrimidin-2-yl)amino)piperidin-1-yl)ethan-1-one]	< 0.5
CC(=O)N[C@H]1CC[C@H](Nc2ncc(Cl)c(-c3cc(C4CC4)[nH]n3)n2)CC1 [Compound 190, trans-N-((1r,4r)-4-((5-chloro-4-(5-cyclopropyl-1H-pyrazol-3-yl)pyrimidin-2-yl)amino)cyclohexyl)acetamide]	< 0.5
CC(=O)N[C@H]1CC[C@H](Nc2ncc(F)c(-c3cccc(-n4cc(C)ccc4=O)c3)n2)CC1 [Compound 235, trans-N-(4-((5-fluoro-4-(3-(5-methyl-2-oxopyridin-1 (2H)-yl)phenyl)pyrimidin-2-yl)amino)cyclohexyl)acetamide]	< 0.5
CN1CCC(CCC(=O)N2CCC(Nc3ncc(Cl)c(-c4cccc(-c5ccccc5)c4)n3)CC2)CC1 [Compound 10, 1-(4-((4-([1,1′-biphenyl]-3-yl)-5-chloropyrimidin-2-yl)amino)piperidin-1-yl)-3-(1-methylpiperidin-4-yl)propan-1-one]	< 0.5
CC(=O)N[C@H]1CC[C@H](Nc2ncc(F)c(-c3cccc(-n4ccccc4=O)c3)n2)CC1 [Compound 238, trans-N-[4-[[5-fluoro-4-[3-(2-oxo-1-pyridyl)phenyl]pyrimidin-2-yl]amino]cyclohexyl]acetamide]	< 0.5
NC(=O)[C@H]1CC[C@H](Nc2ncc(F)c(-c3ccnc(N4CCCCC4=O)c3)n2)CC1 [Compound 258, trans-4-((5-fluoro-4-(2-(2-oxopiperidin-1-yl)pyridin-4-yl)pyrimidin-2-yl)amino)cyclohexane-1-carboxamide]	< 0.5
NC(=O)[C@@H]1CCC[C@H](Nc2ncc(F)c(-c3cccc(-c4ccc[nH]c4=O)c3)n2)C1 (relative stereo) [Compound 150, cis-3-((5-fluoro-4-(3-(2-oxo-1,2-dihydropyridin-3-yl)phenyl)pyrimidin-2-yl)amino)cyclohexane-1-carboxamide]	< 0.5
CC(=O)N[C@H]1CC[C@H](Nc2ncc(Cl)c(-c3ccnc(-c4ccc(F)cc4)c3)n2)CC1 [Compound 142, trans-N-((1r,4r)-4-((5-chloro-4-(2-(4-fluorophenyl)pyridin-4-yl)pyrimidin-2-yl)amino)cyclohexyl)acetamide]	< 0.5
CNC(=O)[C@H]1C[C@H](Nc2ncc(Cl)c(-c3cnn(-c4ccc(F)cc4)c3)n2)C1 [Compound 123, trans-(1r,3r)-3-((5-chloro-4-(1-(4-fluorophenyl)-1H-pyrazol-4-yl)pyrimidin-2-yl)amino)-N-methylcyclobutane-1-carboxamide]	0.5 to 1
